According to patent US20060094775A1, “Remedy for corneal ulcer” (priority 2003, published 2006):
“Also recorded” adds a separate entry of the source.

Legend:
[1] = system: rabbit corneal stromal cells; experiment: Measurement of collagen degradation activity after three-dimensional collagen gel culture (hydroxyproline per well); type: cell-based; conditions: IL-1β 0.1 ng/ml, 48 hr three-dimensional culture, various concentrations
Experimental: (§1) Rabbit corneal stromal cells were prepared and cultured according to the description of Mishima et al., Invest. Ophthalmol. Vis. Sci. 28, 1521-6 (1987). The rabbits were sacrificed by overdose of sodium pentobarbital. Eyeballs were enucleated, sclera was incised to remove cornea. Stroma was separated from epithelium and endothelium. Corneal stromal cells were detached from stroma by digesting with collagenase (Collagenase from Clostridium histolyticum, Sigma (U.S.A.) #C-0130) (2 mg/ml) at 37° C. for 3-4 hr. The cells were cultured in MEM supplemented with 10% fetal bovine serum (FBS), grown in an incubator (37° C. humidity 100%) in 5% CO2 and then passaged in MEM containing 10% FBS.
Collagen gel was prepared according to the manual of Nitta gelatin. To be specific, the obtained rabbit corneal stromal cells were washed with PBS(−), 0.05% Trypsin (1 ml) was added thereto, and the mixture was left in a CO2 incubator for several min to detach the cells. […] The number of the cells was counted with Burker-Turk hemocytometer (Kayagaki Irika Kogyo). […]
After three-dimensional culture, the medium was collected and non-degraded collagen fibril having a molecular weight exceeding 100 kDa was removed by ultrafiltration. […] The amount of the hydroxyproline in the hydrolysate was measured using an Ehrlich's reagent and a spectrophotometer (Bergman et al., Anal. Chem., 35, 1961-5 (1963)). […]

[2] = system: proMMP-9, MMP-9, proMMP-2 and MMP-2 in rabbit corneal stromal cells; experiment: Gelatin zymography of culture medium for MMP-2 and MMP-9 forms after three-dimensional culture; type: cell-based; conditions: for effect on expression of MMPs and proMMPs (gelatin zymography): plasminogen addition, IL-1β 0.1 ng/ml (Example 2, FIG. 9)
Experimental: as §1
Collagen gel was prepared according to the manual of Nitta gelatin. To be specific, the obtained rabbit corneal stromal cells were washed with PBS(−), 0.05% Trypsin (1 ml) was added thereto, and the mixture was left in a CO2 incubator for several min to detach the cells. MEM (5 ml) containing 10% FBS was added to quench the trypsin reaction. The cell suspension was transferred to a 15 ml centrifuge tube, and centrifuged at 1500 rpm for 5 min. The supernatant was removed and the cells were suspended in a constant amount of serum free MEM. The number of the cells was counted with Burker-Turk hemocytometer (Kayagaki Irika Kogyo). The supernatant was removed by centrifugation at 1500 rpm for 5 min. Serum free MEM was added to give a cell suspension (2200000 cells/ml). A. acid-solubilized Type I collagen (3 mg/ml), B. 5-fold concentration of DMEM, C. reconstruction buffer (0.05N NaOH, 0.26 M NaHCO3, 0.2 M HEPES, pH 7.3) and D. a cell suspension (2.2×10^6 cells/ml) were mixed at a ratio of A:B:C:D=7:2:1:1 while cooling on ice. The collagen solution was placed in a 24 well culture plate at 0.5 ml/well, and stood in an incubator at 37° C. 5% CO2 for 0.5-5 hr. Then, 0.5 ml of serum free MEM containing IL-1β (0.1 ng/mL) and various concentrations of triptolide or dexamethasone was overlaid and cultured for 48 hr. […]

[3] = system: TIMP-1 production (mRNA) in rabbit corneal stromal cells; experiment: RT-PCR of TIMP-1 mRNA after three-dimensional culture; type: cell-based; conditions: IL-1β 0.1 ng/ml; dexamethasone 1 nM, triptolide 3 μM
Experimental: as §1
Collagen gel was prepared according to the manual of Nitta gelatin. […] The number of the cells was counted with Burker-Turk hemocytometer (Kayagaki Irika Kogyo). […]
After three-dimensional culture, collagenase was added to dissolve the collagen gel, and the cells were collected. […] This cDNA, QuantiTect SYBR Green PCR Master Mix solution (QuantiTect-SYBR Green PCR kit, manufactured by Qiagen, Germany), nuclease free water and rabbit TIMP-1 primer (synthesis at Nippon Gene Institute, Han et al., Nagoya J. Med. Sci. 62, 115-126 (1999)) were mixed, and the expression amount of TIMP-1 mRNA was examined using LightCycler (manufactured by Roche Molecular Biochemicals, Germany).

[4] = system: proMMPs 1 and 3 in human synovial fluid fibroblast; conditions: cited from earlier work
[5] = system: glycosylated proMMP-1, proMMP-1, MMP-1, proMMP-3 and MMP-3 in rabbit corneal stromal cells; experiment: Western blot of culture medium for MMP-1 and MMP-3 forms after three-dimensional culture; type: cell-based; conditions: IL-1β addition
Experimental: as §1
Collagen gel was prepared according to the manual of Nitta gelatin. To be specific, the obtained rabbit corneal stromal cells were washed with PBS(−), 0.05% Trypsin (1 ml) was added thereto, and the mixture was left in a CO2 incubator for several min to detach the cells. MEM (5 ml) containing 10% FBS was added to quench the trypsin reaction. The cell suspension was transferred to a 15 ml centrifuge tube, and centrifuged at 1500 rpm for 5 min. The supernatant was removed and the cells were suspended in a constant amount of serum free MEM. The number of the cells was counted with Burker-Turk hemocytometer (Kayagaki Irika Kogyo). The supernatant was removed by centrifugation at 1500 rpm for 5 min. […]

Compound | effect on IL-1β induced collagen degradation (amount of degraded collagen as hydroxyproline per well) [1] | effect on expression of MMPs and proMMPs (gelatin zymography) [2] | effect on TIMP-1 production (relative copy number of mRNA) [3] | effect on production of proMMPs 1 and 3 [4] | effect on expression and activation of proMMPs (Western blot) ([5]; 60 mg/ml plasminogen addition) | effect on expression of proMMPs (Western blot) ([5]; plasminogen non-addition) | effect on expression and activation of proMMPs (gelatin zymography) ([2]; 60 mg/ml plasminogen addition, IL-1β addition (Example 1))
CC(C)[C@]12O[C@H]1[C@@H]1O[C@@]13[C@@]1(C)CCC4=C(COC4=O)[C@@H]1C[C@@H]1O[C@@]13C2OC(=O)CCC(=O)[O-].[Na+] (stereo partly drawn) [triptolide succinate sodium salt] | suppress IL-1β induced collagen degradation in a concentration dependent manner | suppresses increase of MMP-2 and activation of MMP-9 | – | – | – | – | –
CC(C)[C@]12O[C@H]1[C@@H]1O[C@]13[C@]1(O[C@H]1C[C@H]1C4=C(CC[C@@]13C)C(=O)OC4)[C@@H]2O [triptolide] | suppress IL-1β induced collagen degradation in a concentration dependent manner; also recorded: suppresses IL-1β induced collagen degradation in a concentration dependent manner | suppresses increase of proMMP-2 and MMP-2, as well as activation of proMMP-9 | does not | suppresses production of proMMPs 1 and 3 | suppresses increase and activation of glycosylated proMMP-1, proMMP-1 and proMMP-3 | suppresses increase of glycosylated proMMP-1, proMMP-1 and proMMP-3 induced by IL-1β | activation of proMMP-9
